Reference: patent US20200270588A1, “GLUCOSYL TRANSFERASE POLYPEPTIDES AND METHODS OF USE” (Syngenta Participations AG, priority 2017, published 2020)

What was measured:
Test in all cases: UDP-Glo glucosyl transferase assay, purified enzyme
Format in all cases: biochemical
[1] = target: T1, Zea mays bx8 glucosyl transferase (his tagged SEQ ID NO: 2) (Zea mays, UniProt Q8W2B7); settings: for Activity: herbicide 0.500 mM, N-terminally his tagged, limit of detection about 0.001
T1 construct: His tag (N); made in house; host or cells: E. coli BL21 (DE3), pET24a
T1 sequence (Q8W2B7 1-459): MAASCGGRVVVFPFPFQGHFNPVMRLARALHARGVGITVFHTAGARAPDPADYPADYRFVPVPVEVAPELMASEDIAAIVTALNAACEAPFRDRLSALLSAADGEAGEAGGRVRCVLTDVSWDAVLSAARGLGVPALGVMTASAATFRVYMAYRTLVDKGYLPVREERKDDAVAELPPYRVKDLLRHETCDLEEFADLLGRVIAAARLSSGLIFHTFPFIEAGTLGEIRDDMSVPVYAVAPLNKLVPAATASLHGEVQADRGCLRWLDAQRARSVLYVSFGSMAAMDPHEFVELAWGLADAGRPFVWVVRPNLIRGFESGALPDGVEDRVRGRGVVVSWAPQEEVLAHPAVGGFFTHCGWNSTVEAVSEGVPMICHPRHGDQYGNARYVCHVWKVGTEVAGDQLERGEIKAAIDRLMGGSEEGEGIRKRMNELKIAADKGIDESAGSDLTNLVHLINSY
Procedure: (§1) Glucosyl transferase activity is assayed via measurement of acceptor substrate-dependent production of UDP from ultrapure UDP-glucose using the Promega UDP-Glo™ method and according to the manufacturer's instructions. Assays are run in 96 well microtiter plates.
(§2) Enzyme, typically at a stock concentration of ˜2 mg/ml is diluted to an appropriate concentration in 50 mM K^+ Hepes buffer at pH7.5 containing 0.5 mg/mL bovine serum albumin (BSA) and 5 ul aliquots of this diluted enzyme added to each well of a Perkin Elmer white ½ area 96 well plate. […] Assays are run for an appropriate time (usually 10 to 60 min) so that the amount of UDP formed lies within the most nearly linear part of the UDP standard curve and are stopped with the addition and mixing of 25 ul UDP-Glo™ detection reagent (prepared as described below). Plates are then incubated at room temperature for 60 minutes and then read in a luminescence plate reader (Perkin Elmer Envision 2130 Multilabel Reader). A UDP standard curve is run alongside each set of assays and reagent blank control assays run with DMSO in place of test herbicide. Typically, 300 pmol of UDP corresponds to a Relative Luminescence Unit (RLU) reading of about 1.5E7 and the response curve between 0 and 600 pmol is fitted to a polynomial function (see for example FIG. 2).
(§3) The UDP-Glo™ reagents are made up and used according to the manufacturer's instructions. Thus, Nucleotide Detection Buffer and ATP are combined to make nucleotide detection reagent (NDR) dispensed into aliquots and frozen to be freshly thawed before use.
(§4) Km and kcat values in respect of UDP-glucose are derived by carrying out experiments to measure initial rates over a suitable range of concentrations of UDP glucose out at a fixed near saturating concentration of acceptor substrate. Best fit values of kcat, Km and kcat/Km are obtained by direct fitting of the data to the Michaelis-Menten equation using Graphpad Prism™ software.
The glucosyl transferase activities of the mutant bx8-derived polypeptides expressed in these strains were initially assayed versus herbicide V as described in Example 1. The partly purified C-terminally his tagged w/t bx8 enzyme (SEQ ID No: 2) catalyzed glucosyl transfer to herbicide V at a low rate estimated to be less than about 0.002/s at 1 mM herbicide V which, because of a relatively high background of UDP formation in the DMSO (no substrate reagent control) was difficult to quantify using the luminescence assay. Thus further assays were run by LC/MS using which technique the formation of an O-beta glucosyl glucoside of herbicide V could more easily be confirmed but only quantified in a relative sense. Thus the various derivatives of C-terminally his tagged Zea mays bx8 SEQ ID No:2 were cloned and expressed in E. coli BL21 (DE3) as described in Example 1 and assayed in plates as crude extracts, as in Example 2, but monitored by LCMS rather than the luminescence assay.
Assays were carried out as described in Example 1. Partly purified C-terminally his tagged w/t Larkspur enzyme (SEQ ID No 10 with a 6 amino acid C-terminal tag) catalyzed glucosyl transfer to herbicide V at a rate estimated to be about 0.0065/s/pmol at 1 mM herbicide V. The similarly-tagged w/t bx-like enzymes from rye (SEQ ID No 11) and from wheat (SEQ ID No 4) were also active but only at levels close to the detection limit at ˜0.0015/s/pmol. Further examples of assay results from further experiments are depicted in Table 14. […]

[2] = test system: Avena bx glucosyl transferase (SEQ ID NO 8); settings: herbicide 0.500 mM; limit of detection about 0.001
Procedure: as §1, §2, §3, §4
(§5) DNA sequences, optimized for E. coli codon usage, corresponding to SEQ IDs 1-15, encoding BX8 and BX9 orthologue polypeptides derived from a range of species (as depicted in FIG. 1) were synthesized by Genewiz (South Plainfield, USA) with 5′ NdeI and 3′ XhoI restriction sites. The various orthologues were synthesized with either a N-terminal 6×His purification tag or C-terminal 6×His purification tag (i.e. tried both ways to achieve best expression of activity) and cloned into the E. coli expression plasmid pET24a (Novagen) via the NdeI and XhoI restriction sites. Expression, purification and assay was as described in Example 1.
(§6) Assays were carried out as described in Example 1. Partly purified C-terminally his tagged w/t Larkspur enzyme (SEQ ID No 10 with a 6 amino acid C-terminal tag) catalyzed glucosyl transfer to herbicide V at a rate estimated to be about 0.0065/s/pmol at 1 mM herbicide V. The similarly-tagged w/t bx-like enzymes from rye (SEQ ID No 11) and from wheat (SEQ ID No 4) were also active but only at levels close to the detection limit at ˜0.0015/s/pmol. Further examples of assay results from further experiments are depicted in Table 14. All of the proteins were C-terminally his tagged versions of the sequences referenced except for the Zea mays bx8 SEQ ID NO: 2 which was N-terminally his tagged.

[3] = test system: wheat bx glucosyl transferase (SEQ ID NO 4); settings: for Activity: herbicide 0.500 mM, limit of detection about 0.001
Procedure: as §1, §2, §3, §4, §5, §6

Row | Structure (SMILES) | Activity [1] | Activity [2] | Activity [3] | rate of glucosyl transfer ([1]; 1 mM herbicide V, partly purified C-terminally his tagged enzyme) | rate of glucosyl transfer ([3]; herbicide V, close to the detection limit)
1 | Cc1cnc(N2C(=O)N(C)CC2O)cc1C(F)(F)F (centres unmarked) [XVIII] | 0.001 pmol/sec/pmol enzyme | 0.003 pmol/sec/pmol enzyme | 0.000 pmol/sec/pmol enzyme |  | 
2 | CN1CC(O)N(c2cc(C(F)(F)F)ccn2)C1=O (centres unmarked) [Compound V] | 0.000 pmol/sec/pmol enzyme | 0.002 pmol/sec/pmol enzyme | 0.001 pmol/sec/pmol enzyme | less than 0.002 /s | ~0.0015 s⁻¹ pmol⁻¹
3 | CN1CC(O)N(c2cc(C(F)(F)F)c(Cl)cn2)C1=O (centres unmarked) [XI] | 0.001 pmol/sec/pmol enzyme | 0.002 pmol/sec/pmol enzyme | 0.001 pmol/sec/pmol enzyme |  | 
4 | CON1C(=O)N(c2cc(C(F)(F)F)ccn2)C(O)[C@@H]1C (some centres unmarked) [Compound VI] | 0.000 pmol/sec/pmol enzyme | 0.002 pmol/sec/pmol enzyme | 0.000 pmol/sec/pmol enzyme |  | 
